Laboratory results published in PubChem BioAssay AID720673 (NMMLSC, 2013).
Calls of active or inactive are those of the source. How the calls were made is not given here.

Target: Botulinum neurotoxin type A light chain (Clostridium botulinum A ATCC 3502)
Test: inhibition of botulinum toxin A LC cleavage – biochemical, powder set 03, dose response (AID 720673)
Details: BoNT/A LC protease, multiplex microsphere substrate cleavage assay

Structure (SMILES)	EC50
COc1cccc(-c2cn3nc(-c4ccc(F)cc4)c(-c4ccc(F)cc4)nc3n2)c1	11.1 µM
Cc1ccc(-c2cn3nc(-c4ccc(C)cc4)c(-c4ccc(C)cc4)nc3n2)cc1	4.7 µM
Fc1ccc(-c2cn3nc(-c4ccccc4)c(-c4ccccc4)nc3n2)cc1	> 20 µM (inactive)
CCCNC(=O)Nc1ccc2nc(-c3ccccc3)c(-c3ccccc3)nc2c1	> 20 µM (inactive)
Cc1ccc(-c2nc3nc(-c4ccc(C#N)cc4)cn3nc2-c2ccc(C)cc2)cc1	4.7 µM
CC(C)(C)C(=O)Nc1ccc2nc(-c3ccccc3)c(-c3ccccc3)nc2c1	> 20 µM (inactive)
COc1ccc(-c2cn3nc(-c4ccc(F)cc4)c(-c4ccc(F)cc4)nc3n2)c(OC)c1	5.7 µM
O=C(Nc1ccc2nc(-c3ccccc3)c(-c3ccccc3)nc2c1)NC1CCCC1	> 20 µM (inactive)
Fc1cccc(-c2cn3nc(-c4ccccc4)c(-c4ccccc4)nc3n2)c1	> 20 µM (inactive)
CCS(=O)(=O)Nc1ccc2nc(-c3ccccc3)c(-c3ccccc3)nc2c1	> 20 µM (inactive)
N#Cc1ccc(-c2cn3nc(-c4ccc(F)cc4)c(-c4ccc(F)cc4)nc3n2)cc1	> 20 µM (inactive)
O=C(Nc1ccc2nc(-c3ccccc3)c(-c3ccccc3)nc2c1)C1CCCC1	> 20 µM (inactive)
COc1ccc(-c2nc3nc(-c4ccc(F)cc4)cn3nc2-c2ccc(OC)cc2)cc1	4 µM
Fc1ccc(-c2nc3nc(-c4ccccc4)cn3nc2-c2ccc(F)cc2)cc1	11.1 µM
Fc1ccc(-c2nc3nc(-c4cccc(F)c4)cn3nc2-c2ccc(F)cc2)cc1	8.6 µM
CCCS(=O)(=O)Nc1ccc2nc(-c3cccs3)c(-c3cccs3)nc2c1	> 20 µM (inactive)
Cc1ccc(-c2nc3nc(-c4ccccc4)cn3nc2-c2ccc(C)cc2)cc1	7.4 µM
COc1cccc(-c2cn3nc(-c4ccc(C)cc4)c(-c4ccc(C)cc4)nc3n2)c1	6.6 µM
COc1ccccc1-c1cn2nc(-c3ccc(F)cc3)c(-c3ccc(F)cc3)nc2n1	6.2 µM
Cc1ccc(-c2nc3nc(-c4ccc(F)cc4)cn3nc2-c2ccc(C)cc2)cc1	7.6 µM
CC(C)(C)NC(=O)Nc1ccc2nc(-c3ccccc3)c(-c3ccccc3)nc2c1	> 20 µM (inactive)

Structure (SMILES)	EC50
CCNC(=O)Nc1ccc2nc(-c3cccs3)c(-c3cccs3)nc2c1	14.3 µM
CC(C)NC(=O)Nc1ccc2nc(-c3cccs3)c(-c3cccs3)nc2c1	> 20 µM (inactive)
COc1ccc(-c2nc3nc(-c4ccc(OC(F)(F)F)cc4)cn3nc2-c2ccc(OC)cc2)cc1	4.2 µM
COc1ccc(-c2cn3nc(-c4ccc(C)cc4)c(-c4ccc(C)cc4)nc3n2)cc1	5 µM
CC(Oc1ccccc1)C(=O)Nc1ccc2nc(-c3ccccc3)c(-c3ccccc3)nc2c1 (configuration not stated)	> 20 µM (inactive)
COc1ccccc1-c1cn2nc(-c3ccc(C)cc3)c(-c3ccc(C)cc3)nc2n1	12.4 µM
CC(C)OC(=O)Nc1ccc2nc(-c3cccs3)c(-c3cccs3)nc2c1	> 20 µM (inactive)
COc1ccc(-c2cn3nc(-c4ccc(F)cc4)c(-c4ccc(F)cc4)nc3n2)cc1	7.1 µM
COc1ccc(-c2nc3nc(-c4ccccc4)cn3nc2-c2ccc(OC)cc2)cc1	9.2 µM
COc1cccc(-c2cn3nc(-c4ccccc4)c(-c4ccccc4)nc3n2)c1	16.2 µM
COc1ccc(-c2nc3nc(-c4ccc(C)cc4)cn3nc2-c2ccc(OC)cc2)cc1	> 20 µM (inactive)
COc1ccc(-c2nc3nc(-c4ccc(S(C)(=O)=O)cc4)cn3nc2-c2ccc(OC)cc2)cc1	> 20 µM (inactive)
O=C(Nc1ccc2nc(-c3ccccc3)c(-c3ccccc3)nc2c1)C1CCC1	> 20 µM (inactive)
CS(=O)(=O)c1ccc(-c2cn3nc(-c4ccccc4)c(-c4ccccc4)nc3n2)cc1	11.6 µM
O=S(=O)(Nc1ccc2nc(-c3cccs3)c(-c3cccs3)nc2c1)C1CC1	> 20 µM (inactive)
O=C(Nc1ccc2nc(-c3ccccc3)c(-c3ccccc3)nc2c1)C1CC1	> 20 µM (inactive)
COc1ccc(-c2nc3nc(-c4cccc(F)c4)cn3nc2-c2ccc(OC)cc2)cc1	7 µM
O=C(Nc1ccc2nc(-c3cccs3)c(-c3cccs3)nc2c1)C1CCCC1	> 20 µM (inactive)
CCCOC(=O)Nc1ccc2nc(-c3ccccc3)c(-c3ccccc3)nc2c1	> 20 µM (inactive)
COc1ccc(-c2cn3nc(-c4ccccc4)c(-c4ccccc4)nc3n2)c(OC)c1	13.2 µM
O=C(Nc1ccc2nc(-c3ccccc3)c(-c3ccccc3)nc2c1)OCc1ccccc1	> 20 µM (inactive)

Structure (SMILES)	EC50
CCCS(=O)(=O)Nc1ccc2nc(-c3ccccc3)c(-c3ccccc3)nc2c1	> 20 µM (inactive)
Clc1ccc(-c2cn3nc(-c4ccccc4)c(-c4ccccc4)nc3n2)c(Cl)c1	> 20 µM (inactive)
Fc1ccc(-c2cn3nc(-c4ccc(F)cc4)c(-c4ccc(F)cc4)nc3n2)cc1	6.7 µM
O=C(Nc1ccc2nc(-c3cccs3)c(-c3cccs3)nc2c1)C1CC1	> 20 µM (inactive)
Cc1ccc(-c2nc3nc(-c4cccc(F)c4)cn3nc2-c2ccc(C)cc2)cc1	5.2 µM
O=C(Nc1ccc2nc(-c3cccs3)c(-c3cccs3)nc2c1)C1CCC1	> 20 µM (inactive)
COc1ccc(-c2cn3nc(-c4ccc(OC)cc4)c(-c4ccc(OC)cc4)nc3n2)cc1	5.7 µM
O=C(Nc1ccc2nc(-c3cccs3)c(-c3cccs3)nc2c1)OCc1ccccc1	10.6 µM
Cc1ccc(-c2cn3nc(-c4ccc(F)cc4)c(-c4ccc(F)cc4)nc3n2)cc1	7.7 µM
COC(=O)Nc1ccc2nc(-c3ccccc3)c(-c3ccccc3)nc2c1	> 20 µM (inactive)
CCC(=O)Nc1ccc2nc(-c3cccs3)c(-c3cccs3)nc2c1	> 20 µM (inactive)
CC(C)OC(=O)Nc1ccc2nc(-c3ccccc3)c(-c3ccccc3)nc2c1	> 20 µM (inactive)
COc1ccc(-c2nc3nc(-c4ccccc4OC)cn3nc2-c2ccc(OC)cc2)cc1	8.9 µM
COC(=O)Nc1ccc2nc(-c3cccs3)c(-c3cccs3)nc2c1	> 20 µM (inactive)
Cc1ccc(-c2nc3nc(-c4ccc(S(C)(=O)=O)cc4)cn3nc2-c2ccc(C)cc2)cc1	7.6 µM
CS(=O)(=O)c1ccc(-c2cn3nc(-c4ccc(F)cc4)c(-c4ccc(F)cc4)nc3n2)cc1	> 20 µM (inactive)
COc1ccc(-c2cn3nc(-c4ccc(C)cc4)c(-c4ccc(C)cc4)nc3n2)c(OC)c1	9.5 µM
CCC(=O)Nc1ccc2nc(-c3ccccc3)c(-c3ccccc3)nc2c1	> 20 µM (inactive)
COc1ccccc1-c1cn2nc(-c3ccccc3)c(-c3ccccc3)nc2n1	10.9 µM
Fc1ccc(-c2nc3nc(-c4ccc(OC(F)(F)F)cc4)cn3nc2-c2ccc(F)cc2)cc1	15.3 µM
CC(C)CS(=O)(=O)Nc1ccc2nc(-c3ccccc3)c(-c3ccccc3)nc2c1	> 20 µM (inactive)

Structure (SMILES)	EC50
FC(F)(F)Oc1ccc(-c2cn3nc(-c4ccccc4)c(-c4ccccc4)nc3n2)cc1	> 20 µM (inactive)
COc1ccc(-c2nc3nc(-c4ccc(C#N)cc4)cn3nc2-c2ccc(OC)cc2)cc1	2.4 µM
O=C(Nc1ccc2nc(-c3ccccc3)c(-c3ccccc3)nc2c1)C1CCCCC1	> 20 µM (inactive)
CCOC(=O)Nc1ccc2nc(-c3ccccc3)c(-c3ccccc3)nc2c1	> 20 µM (inactive)
CCNC(=O)Nc1ccc2nc(-c3ccccc3)c(-c3ccccc3)nc2c1	> 20 µM (inactive)
COc1ccc(-c2nc3nc(-c4cccc(OC)c4)cn3nc2-c2ccc(OC)cc2)cc1	14.7 µM
CCCCOC(=O)Nc1ccc2nc(-c3ccccc3)c(-c3ccccc3)nc2c1	> 20 µM (inactive)
CCNC(=S)Nc1ccc2nc(-c3ccccc3)c(-c3ccccc3)nc2c1	> 20 µM (inactive)
Cc1ccc(-c2nc3nc(-c4ccc(OC(F)(F)F)cc4)cn3nc2-c2ccc(C)cc2)cc1	4 µM
O=C(Nc1ccc2nc(-c3cccs3)c(-c3cccs3)nc2c1)NC1CCCC1	> 20 µM (inactive)
COc1ccc(-c2nc3nc(-c4ccc(OC)cc4OC)cn3nc2-c2ccc(OC)cc2)cc1	> 20 µM (inactive)
CCCOC(=O)Nc1ccc2nc(-c3cccs3)c(-c3cccs3)nc2c1	> 20 µM (inactive)
CC(C)CS(=O)(=O)Nc1ccc2nc(-c3cccs3)c(-c3cccs3)nc2c1	> 20 µM (inactive)
CCCCOC(=O)Nc1ccc2nc(-c3cccs3)c(-c3cccs3)nc2c1	> 20 µM (inactive)
N#Cc1ccc(-c2cn3nc(-c4ccccc4)c(-c4ccccc4)nc3n2)cc1	> 20 µM (inactive)
CC(=O)Nc1ccc2nc(-c3ccccc3)c(-c3ccccc3)nc2c1	> 20 µM (inactive)
CC(C)NC(=O)Nc1ccc2nc(-c3ccccc3)c(-c3ccccc3)nc2c1	> 20 µM (inactive)
CCOC(=O)Nc1ccc2nc(-c3cccs3)c(-c3cccs3)nc2c1	> 20 µM (inactive)
O=S(=O)(Nc1ccc2nc(-c3ccccc3)c(-c3ccccc3)nc2c1)C1CC1	> 20 µM (inactive)
